{"source": "patent US20240136011A1", "about": "“SYSTEM, METHOD, AND COMPUTER PROGRAM FOR PHYSICS-BASED BINDING AFFINITY ESTIMATION” (BOARD OF TRUSTEES OF THE UNIVERSITY OF ARKANSAS, priority 2022, published 2024)", "origin": "cited, not measured here", "molecular_target": "human fibroblast growth factor 1 (hFGF1) (Homo sapiens, UniProt P05230)", "sequence (P05230 whole entry)": "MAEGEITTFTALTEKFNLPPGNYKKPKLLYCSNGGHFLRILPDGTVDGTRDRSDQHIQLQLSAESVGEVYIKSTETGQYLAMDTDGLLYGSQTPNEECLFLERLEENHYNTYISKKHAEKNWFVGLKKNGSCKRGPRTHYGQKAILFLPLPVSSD", "settings": "MM-GBSA; recent computational studies"}
{"substance": "heparin hexasaccharide", "values": [{"measurement": "ΔG°", "result": "-95 ± 11", "unit": "kcal/mol"}]}
